Data published in ChEMBL document CHEMBL4043168, “The design and SAR of a novel series of 2-aminopyridine based LRRK2 inhibitors” (Bioorg Med Chem Lett, 2017).

Tests used:
[1] = target: T1, Phosphatidylinositol 4,5-bisphosphate 3-kinase catalytic subunit delta isoform (Homo sapiens) (UniProt O00329); assay: Inhibition of PIK3CD ATP binding site (VNWLAHNVSKDNRQ) in human PBMC at 1 uM
T1 sequence (whole entry): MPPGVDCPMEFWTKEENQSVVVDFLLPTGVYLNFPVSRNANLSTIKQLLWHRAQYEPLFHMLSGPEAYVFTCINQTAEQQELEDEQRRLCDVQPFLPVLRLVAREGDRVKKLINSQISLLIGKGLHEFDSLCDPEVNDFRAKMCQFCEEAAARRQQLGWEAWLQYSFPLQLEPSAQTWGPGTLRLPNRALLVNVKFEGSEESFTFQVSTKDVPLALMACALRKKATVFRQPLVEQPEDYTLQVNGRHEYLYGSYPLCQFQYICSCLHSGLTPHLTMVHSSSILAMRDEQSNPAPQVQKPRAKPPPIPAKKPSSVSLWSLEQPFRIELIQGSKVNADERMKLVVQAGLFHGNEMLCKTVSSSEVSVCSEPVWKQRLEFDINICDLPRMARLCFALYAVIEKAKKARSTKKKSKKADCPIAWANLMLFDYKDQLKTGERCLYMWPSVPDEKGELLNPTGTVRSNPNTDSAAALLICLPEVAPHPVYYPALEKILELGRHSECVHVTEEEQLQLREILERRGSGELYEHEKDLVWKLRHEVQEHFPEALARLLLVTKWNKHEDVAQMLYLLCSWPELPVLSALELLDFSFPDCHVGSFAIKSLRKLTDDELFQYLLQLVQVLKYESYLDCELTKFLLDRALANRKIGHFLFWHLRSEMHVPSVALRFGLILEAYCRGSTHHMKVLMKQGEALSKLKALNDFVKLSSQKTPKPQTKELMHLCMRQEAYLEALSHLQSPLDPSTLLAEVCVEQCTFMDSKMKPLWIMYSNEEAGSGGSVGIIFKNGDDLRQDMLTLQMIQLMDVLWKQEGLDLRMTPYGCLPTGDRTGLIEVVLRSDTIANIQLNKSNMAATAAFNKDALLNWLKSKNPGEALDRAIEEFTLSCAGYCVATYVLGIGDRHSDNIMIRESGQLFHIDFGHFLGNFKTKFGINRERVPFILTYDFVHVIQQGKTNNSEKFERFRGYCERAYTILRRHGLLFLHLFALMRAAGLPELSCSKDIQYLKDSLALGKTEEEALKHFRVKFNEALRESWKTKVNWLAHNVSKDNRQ

[2] = target: Serine/threonine-protein kinase Sgk3 (Homo sapiens) (UniProt Q96BR1); assay: Inhibition of SGK3 conserved Lys1 (FYAVKVLQK) in human PBMC at 1 uM
Chain of Serine/threonine-protein kinase Sgk3 (Homo sapiens) (Q96BR1 whole entry): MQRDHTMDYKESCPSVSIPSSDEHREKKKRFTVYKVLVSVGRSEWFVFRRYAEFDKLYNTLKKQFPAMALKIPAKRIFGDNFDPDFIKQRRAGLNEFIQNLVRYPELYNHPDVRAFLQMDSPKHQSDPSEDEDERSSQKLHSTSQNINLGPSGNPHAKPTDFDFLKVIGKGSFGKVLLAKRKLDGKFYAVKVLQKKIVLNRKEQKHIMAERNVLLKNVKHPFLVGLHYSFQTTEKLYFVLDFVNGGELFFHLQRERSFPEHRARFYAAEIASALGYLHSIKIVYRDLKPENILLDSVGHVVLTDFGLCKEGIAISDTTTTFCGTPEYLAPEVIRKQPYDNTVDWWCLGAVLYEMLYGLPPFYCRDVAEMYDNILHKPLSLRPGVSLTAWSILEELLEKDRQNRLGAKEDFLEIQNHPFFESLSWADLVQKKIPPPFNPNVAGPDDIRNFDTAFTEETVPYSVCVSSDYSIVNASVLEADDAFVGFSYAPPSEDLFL

[3] = target: T2, STE20-related kinase adapter protein alpha (Homo sapiens) (UniProt Q7RTN6); assay: Inhibition of STLK5 conserved Lys2 (SVKASHILISVDGK) in human PBMC at 1 uM
T2 sequence (whole entry): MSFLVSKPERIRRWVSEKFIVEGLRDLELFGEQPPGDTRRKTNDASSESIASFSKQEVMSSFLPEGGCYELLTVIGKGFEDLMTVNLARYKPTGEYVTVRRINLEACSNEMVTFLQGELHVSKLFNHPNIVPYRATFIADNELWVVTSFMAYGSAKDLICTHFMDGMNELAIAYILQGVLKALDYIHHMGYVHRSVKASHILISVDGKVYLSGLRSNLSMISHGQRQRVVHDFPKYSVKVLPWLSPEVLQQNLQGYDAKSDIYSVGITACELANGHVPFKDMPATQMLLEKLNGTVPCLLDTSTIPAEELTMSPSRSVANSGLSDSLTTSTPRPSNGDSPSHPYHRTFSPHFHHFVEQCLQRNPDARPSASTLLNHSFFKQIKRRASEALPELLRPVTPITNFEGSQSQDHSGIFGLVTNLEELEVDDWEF

[4] = target: Calcium/calmodulin-dependent protein kinase type II subunit delta (Homo sapiens) (UniProt Q13557); assay: Inhibition of CaMK2d labeling at conserved Lys2 (DLKPENLLLASK) in human PBMC at 0.1 uM
Chain of Calcium/calmodulin-dependent protein kinase type II subunit delta (Homo sapiens) (Q13557 whole entry): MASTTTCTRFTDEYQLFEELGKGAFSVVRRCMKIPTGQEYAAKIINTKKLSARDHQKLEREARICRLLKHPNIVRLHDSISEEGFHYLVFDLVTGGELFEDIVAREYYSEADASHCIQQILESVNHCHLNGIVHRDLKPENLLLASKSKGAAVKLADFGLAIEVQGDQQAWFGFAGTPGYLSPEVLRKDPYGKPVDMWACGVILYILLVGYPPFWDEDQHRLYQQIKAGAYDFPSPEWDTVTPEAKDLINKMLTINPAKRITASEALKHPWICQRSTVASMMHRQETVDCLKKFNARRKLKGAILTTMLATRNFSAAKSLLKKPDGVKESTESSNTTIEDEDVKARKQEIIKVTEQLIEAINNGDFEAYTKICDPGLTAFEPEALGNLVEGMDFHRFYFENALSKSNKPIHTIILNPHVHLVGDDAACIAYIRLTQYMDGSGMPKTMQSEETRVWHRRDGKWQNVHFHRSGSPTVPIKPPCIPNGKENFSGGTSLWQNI

[5] = target: Kinase suppressor of Ras 2 (Homo sapiens) (UniProt Q6VAB6); assay: Inhibition of KSR2 activation Loop (SKNVFYDNGK) in human PBMC at 0.1 uM
Chain of Kinase suppressor of Ras 2 (Homo sapiens) (Q6VAB6 whole entry): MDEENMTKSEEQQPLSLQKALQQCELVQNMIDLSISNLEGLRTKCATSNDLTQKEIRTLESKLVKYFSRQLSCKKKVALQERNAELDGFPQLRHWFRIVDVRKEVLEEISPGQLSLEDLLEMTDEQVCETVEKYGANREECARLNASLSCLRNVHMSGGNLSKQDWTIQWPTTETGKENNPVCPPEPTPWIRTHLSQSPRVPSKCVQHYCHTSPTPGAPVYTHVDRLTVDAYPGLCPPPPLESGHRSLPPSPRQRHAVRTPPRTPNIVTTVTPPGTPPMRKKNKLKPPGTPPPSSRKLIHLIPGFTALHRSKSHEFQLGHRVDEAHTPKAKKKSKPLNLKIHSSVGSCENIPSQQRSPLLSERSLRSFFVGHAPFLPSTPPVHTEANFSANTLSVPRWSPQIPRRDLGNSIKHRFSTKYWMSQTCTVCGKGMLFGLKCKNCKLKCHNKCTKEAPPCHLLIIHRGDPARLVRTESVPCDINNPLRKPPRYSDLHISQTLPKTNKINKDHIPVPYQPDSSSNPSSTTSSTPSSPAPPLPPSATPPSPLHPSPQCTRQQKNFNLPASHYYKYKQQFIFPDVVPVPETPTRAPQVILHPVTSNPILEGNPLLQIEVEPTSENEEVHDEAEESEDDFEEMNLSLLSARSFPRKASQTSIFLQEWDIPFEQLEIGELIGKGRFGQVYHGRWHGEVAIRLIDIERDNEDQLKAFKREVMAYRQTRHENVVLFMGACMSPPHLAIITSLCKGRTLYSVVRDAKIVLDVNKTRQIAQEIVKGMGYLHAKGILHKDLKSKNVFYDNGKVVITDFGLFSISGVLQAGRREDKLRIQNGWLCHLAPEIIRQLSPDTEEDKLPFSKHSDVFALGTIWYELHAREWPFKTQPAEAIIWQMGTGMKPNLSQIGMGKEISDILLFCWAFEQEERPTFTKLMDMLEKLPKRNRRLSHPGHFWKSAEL

[6] = target: Serine/threonine-protein kinase Nek8 (Homo sapiens) (UniProt Q86SG6); assay: Inhibition of NEK8 conserved Lys2 (DLKTQNILLDK) in human PBMC at 0.1 uM
Chain of Serine/threonine-protein kinase Nek8 (Homo sapiens) (Q86SG6 whole entry): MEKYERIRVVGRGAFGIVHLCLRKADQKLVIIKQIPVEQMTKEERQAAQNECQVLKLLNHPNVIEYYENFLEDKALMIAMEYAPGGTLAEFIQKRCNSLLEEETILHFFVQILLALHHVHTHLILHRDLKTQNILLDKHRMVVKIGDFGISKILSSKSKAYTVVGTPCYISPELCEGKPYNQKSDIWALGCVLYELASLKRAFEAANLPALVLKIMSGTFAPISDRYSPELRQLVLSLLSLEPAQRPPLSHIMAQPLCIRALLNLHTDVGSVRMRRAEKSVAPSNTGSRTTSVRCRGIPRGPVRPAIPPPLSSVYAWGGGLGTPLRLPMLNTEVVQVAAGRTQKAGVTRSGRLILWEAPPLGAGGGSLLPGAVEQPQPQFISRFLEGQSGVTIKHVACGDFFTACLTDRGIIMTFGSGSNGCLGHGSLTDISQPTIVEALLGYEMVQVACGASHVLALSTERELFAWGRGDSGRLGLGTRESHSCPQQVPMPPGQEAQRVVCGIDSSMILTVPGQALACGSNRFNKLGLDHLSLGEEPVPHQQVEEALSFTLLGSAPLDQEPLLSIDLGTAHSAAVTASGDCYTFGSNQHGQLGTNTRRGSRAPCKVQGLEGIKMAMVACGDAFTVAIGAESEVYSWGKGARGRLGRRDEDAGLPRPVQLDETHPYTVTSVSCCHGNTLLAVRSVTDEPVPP

CC(C)n1cc(-c2cc(-c3ccc(CN4CCOCC4)cc3)cnc2N)nn1
inhibition [1]: 8% | inhibition [2]: -2.2% | inhibition [3]: 8.7% | inhibition [4]: -7.5% | inhibition [5]: 20.4% | inhibition [6]: 0.2%
